Among the data in PubChem BioAssay AID463206 (Broad Institute, 2010) are AC50 values, retold here.

Active and inactive are the calls of the source.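 The calls were made as follows: active = caspase luminescence falls with dose and the half-maximal concentration AC50 from the fitted curve is at or below a set limit; inconclusive = flat fit at 30 to 70% signal loss, or invalid fit; inactive = AC50 above the limit, or signal rises instead.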 Bounds are passed on as bounds.

The experiment deals with INS-1E cytokine-induced caspase-3/7, Caspase-Glo luminescence, 48 h. Description: inhibitors of cytokine-induced caspase-3/7 activity, dose response, orthogonal assay for beta-cell apoptosis protection project, INS-1E rat cells, luminescence (AID 463206).
The AC50 is the midpoint of the concentration-response curve, whichever way the signal moves. As for `Cc1ccc(S(=O)(=O)Nc2ccc(O)c3ccccc23)c(C)c1`, the AC50 was > 26 µM (inactive).

With `Oc1[nH]c2ccc(Br)cc2c1N=NC(=S)N1CCOCC1`, the AC50 is > 26 µM (inactive).

For `Cc1ccc(-n2cccc2C(=S)N=P(N(C)C)(N(C)C)N(C)C)cc1`, the AC50 was > 26 µM (inactive).

`C/C(=N\NC(=O)c1ccc(Cl)c(Cl)c1)c1ccccn1`: the AC50 is > 26 µM (inactive).

As to `Cc1occc(=O)c1OC(=O)Nc1ccc(Cl)c(Cl)c1`, the AC50 is > 26 µM (inactive).

As for `Cc1ccc2nc(N(CCCN(C)C)C(=O)c3ccc(S(=O)(=O)N4CCc5ccccc5C4)cc3)sc2c1`, the AC50 is > 26 µM (inactive).

For `Clc1ccc(-c2cc(-c3nnc4n3CCCCC4)c3ccccc3n2)cc1`, the AC50 is > 26 µM (inactive).

On to `O=c1[nH]c(=O)n(Cc2ccco2)c2c1C(C(F)(F)F)(C(F)(F)F)N=C(c1ccc(F)cc1)N2`, for which the AC50 was > 26 µM (inactive).

As to `COc1ccc(C2C(C#N)=C(N)Oc3c2ccc2cccnc32)cc1OC` (stereo not given), the AC50 was > 12 µM (inactive).

Turning to `N#C/C(=N\Nc1ccc(Cl)cc1)C(=O)c1ccccc1`, the AC50 is > 26 µM (inactive).

With `C#CC[N+](C)(C)CCCCCCCCCCCC`, the AC50 is > 26 µM (inactive).

`c1ccc(CNc2nc(NCc3ccccc3)c3ccccc3n2)cc1`: the AC50 was > 26 µM (inactive).

Regarding `O=C(C(Cl)Cl)N1c2ccccc2OCC1c1ccccc1` (stereo not given), the AC50 is > 26 µM (inactive).

Turning to `N#Cc1ccc(C(=O)Nc2nc(-c3cccs3)c(C(=O)C(F)(F)F)s2)cc1`, the AC50 was > 26 µM (inactive).

`CC1=NOC(=O)/C1=C/c1ccc(-c2ccc(Cl)cc2)o1`: the AC50 is > 26 µM (inactive).

As for `Cc1onc(-c2ccccc2)c1C(=O)NC(=S)NNC(=O)c1ccccc1O`, the AC50 is > 26 µM (inactive).

As to `CCOc1ccc(OCc2ccc(C(=O)N/N=C(\C)c3ccccn3)cc2)cc1`, the AC50 is > 26 µM (inactive).

For `CCOC(=O)c1nc(NNC(=O)c2ccc([N+](=O)[O-])cc2)sc1C`, the AC50 is > 26 µM (inactive).

Turning to `COc1ccc(C2=Nn3c(nnc3-c3ccccc3Cl)SC2)cc1OC1CCCC1`, the AC50 is > 26 µM (inactive).

`CCOc1cccc(/C=N/Nc2ccc(S(=O)(=O)N(CC)CC)cn2)c1O`: the AC50 was > 26 µM (inactive).

With `C=C(C)C(=O)O[C@H]1C/C(C)=C\C(=O)/C=C(\C)[C@H](O)[C@@H]2OC(=O)C(=C)[C@@H]21`, the AC50 is 3 µM.

On to `Cc1onc(-c2ccccc2)c1C(=O)NC(=S)NNC(=O)c1ccc(O)cc1O`, for which the AC50 was > 26 µM (inactive).

In the case of `Cc1ccc(-c2nc(NC(=O)c3nn(C)cc3[N+](=O)[O-])sc2C)cc1C`, the AC50 was > 26 µM (inactive).

For `O=C(Nc1cccnc1)c1cccnc1`, the AC50 is > 26 µM (inactive).

Turning to `COc1ccc(Br)cc1CN(C)CC(=O)NCc1ccc(F)cc1`, the AC50 is > 26 µM (inactive).

Take `O=C(c1cc2sccc2n1Cc1ccc(F)cc1)N1CCN(c2nc3ccccc3s2)CC1`: the AC50 is > 26 µM (inactive).

Take `Fc1cccc(Cl)c1-c1nnc2ccc3ccccc3n12`: the AC50 was > 26 µM (inactive).

`Cc1ccc(NC(=O)NCC2CCN(Cc3cccc(Cl)c3)CC2)cc1Cl`: the AC50 is > 26 µM (inactive).

Take `CCc1nnc(NC(=O)c2cccc(C(=O)Nc3nnc(CC)s3)n2)s1`: the AC50 was > 26 µM (inactive).

Regarding `COc1cccc(/C=N/NC(=O)c2c(-c3ccccc3)noc2C)c1O`, the AC50 is > 26 µM (inactive).

Consider `COc1cc(/C=N/N=C(N)N)ccc1OCc1ccc(Cl)cc1`, for which the AC50 is > 26 µM (inactive).

As for `NC(=S)N/N=C/c1ccc(C23CC4CC(CC(C4)C2)C3)cc1`, the AC50 is > 26 µM (inactive).

For `Cn1c(NN=O)nc2ccccc21`, the AC50 was > 26 µM (inactive).

Consider `CCOC(=O)C(C(C)=O)c1c(Br)c(O)c(O)c2c(C(=O)c3ccc(C)cc3)coc12` (stereo not given), for which the AC50 is > 26 µM (inactive).

As for `COc1c(CC=C(C)C)cc(C2CC(=O)c3c(O)cc(O)cc3O2)cc1CC=C(C)C` (stereo not given), the AC50 is > 26 µM (inactive).

As for `O=C(c1ccc(F)c(S(=O)(=O)N2CCOCC2)c1)N1CCN(c2ccc(F)cc2)CC1`, the AC50 was > 26 µM (inactive).

Consider `COc1ccc(/C(C)=N/Nc2nc(C)cc(-c3ccccc3)n2)cc1`, for which the AC50 is > 26 µM (inactive).

With `CC(=O)c1c(C)[nH]c(C(=O)OCc2cccc(Cl)c2)c1C`, the AC50 is > 12 µM (inactive).

For the compound `CCCC1CCC(c2ccc(C(=O)NN)cc2)CC1` (stereo not given), the AC50 was > 12 µM (inactive).

In the case of `COc1ccc(C(=O)N2CCN(c3ccc([N+](=O)[O-])c(NCCc4ccc(OC)c(OC)c4)c3)CC2)cc1`, the AC50 was > 26 µM (inactive).

As for `CC1Cc2ccccc2N1C(=O)CSc1nc2ccccc2o1` (stereo not given), the AC50 is > 26 µM (inactive).

Regarding `CCCCC(CC)CN=C(N)NC(N)=NCCCCCCN=C(N)NC(N)=NCC(CC)CCCC` (stereo not given), the AC50 is > 26 µM (inactive).

For the compound `COc1ccc(C(=O)/C(=C\c2ccco2)N2C=CC=CC2=C(C#N)C#N)cc1`, the AC50 is > 26 µM (inactive).

As to `COc1ccc(N(C)S(=O)(=O)c2cccc(C(=O)Nc3nc(C)c(C(C)=O)s3)c2)cc1`, the AC50 is > 26 µM (inactive).

Consider `N/C(=N\OC(=O)c1cccc(Cn2cc(C(F)(F)F)ccc2=O)c1)c1ccc(Cl)cc1`, for which the AC50 is > 26 µM (inactive).

On to `O=C1/C(=C/c2ccc(N3CCOCC3)o2)SC(=Nc2ccccc2)N1CCc1c[nH]c2ccccc12`, for which the AC50 was > 26 µM (inactive).

Regarding `COc1ccc(/C=N/NC(=O)c2nc(-c3ccccc3)n(-c3ccccc3)n2)c(O)c1`, the AC50 was > 26 µM (inactive).

For `c1ccc2c(c1)OCC(CNc1ncnc3sccc13)O2` (stereo not given), the AC50 is > 26 µM (inactive).

As for `O=C(Nc1ccc(Cl)cc1)Nc1nnc(-c2ccncc2)s1`, the AC50 was > 26 µM (inactive).

Take `CCN(CC)CCn1c2ccccc2c2cnc(N)c(C#N)c21`: the concentration at half-maximal activity (AC50) was 5.57 µM.

Regarding `CC1Cc2cc(S(=O)(=O)N3CCC(C(=O)N4CCN(c5ccccc5F)CC4)CC3)ccc2N1C(=O)C1CC1` (stereo not given), the AC50 was > 26 µM (inactive).

Turning to `COc1cc(NC(=O)c2[nH]cnc2C(N)=O)cc(C(=O)Nc2cccc(C(F)(F)F)c2)c1`, the AC50 was > 26 µM (inactive).

As to `Nc1ccc(Nc2ccc([N+](=O)[O-])cc2[N+](=O)[O-])cc1`, the AC50 is > 26 µM (inactive).

As for `CCCCOc1ccc(-c2cc(C(=O)NNC(=S)NCC)c3ccccc3n2)cc1`, the AC50 was > 26 µM (inactive).

`COc1ccccc1N1CCN(Cc2cc(Br)c(O)c3ncccc23)CC1`: the AC50 is > 12 µM (inactive).

`O=C(Nc1nc2c(F)cc(F)cc2s1)c1ccccn1`: the AC50 is > 26 µM (inactive).

On to `CN(C)S(=O)(=O)c1ccc(Nc2nc(C3CC3)nc3c2nnn3Cc2ccccc2Cl)cc1`, for which the AC50 was > 26 µM (inactive).

For `O=C(N/N=C/c1ccc(O)c2ncccc12)c1cccc(Br)c1`, the AC50 is > 26 µM (inactive).

For `CCN1/C(=C/C=C/c2sc3ccccc3[n+]2CC)Sc2ccccc21`, the AC50 is > 26 µM (inactive).

With `O=C(Nc1nc2ccccc2[nH]1)c1ccccc1F`, the AC50 was > 26 µM (inactive).

Regarding `C/C(=N\Nc1ccc2nncn2n1)c1ccccn1`, the AC50 is > 26 µM (inactive).

`CCCCC[n+]1ccn(C2=C([O-])c3ccccc3C(=O)/C2=N\S(=O)(=O)c2ccccc2)c1`: the AC50 was > 26 µM (inactive).

Turning to `CCc1ccc(C2CC(c3cccc(Cl)c3)n3nc(N)nc3N2)cc1` (stereo not given), the AC50 is > 12 µM (inactive).

With `O=[N+]([O-])c1ccc(O)c(-c2cc(C(F)(F)F)nc(-c3ccccc3)n2)c1`, the AC50 was > 26 µM (inactive).

For the compound `O=C(Nc1cccc(Cl)c1)Nc1nnc(CSCCOc2ccc(Cl)cc2)s1`, the AC50 is > 26 µM (inactive).

As to `Oc1ccc(Br)cc1-c1cc(-c2ccc(Cl)cc2)n[nH]1`, the AC50 was > 26 µM (inactive).

In the case of `Cc1ccccc1NC(=S)N/N=C/c1ccc(O)cc1O`, the AC50 is > 26 µM (inactive).

Consider `COc1cccc(/C=N/NC(=O)c2cc3c(OC)ccc(OC)c3[nH]2)c1O`, for which the AC50 is > 26 µM (inactive).

As for `CC(Oc1ccc(Cl)cc1Cl)c1nc(-c2ccc(NC(=O)c3cccnc3)cc2)no1` (stereo not given), the AC50 is > 26 µM (inactive).

As for `Oc1c(C(Nc2ccccn2)c2ccccn2)ccc2cccnc12` (stereo not given), the AC50 was > 12 µM (inactive).

As for `O=C(N/N=C/c1cccnc1)c1ccccc1NS(=O)(=O)c1cccs1`, the AC50 was > 26 µM (inactive).

In the case of `c1ccc2c(c1)ncn2CCCOc1ccc2c(c1)CCC2`, the AC50 is > 26 µM (inactive).

On to `NC(=O)c1c(-c2ccc(Cl)cc2Cl)csc1NC(=O)Cc1ccccc1`, for which the AC50 was > 26 µM (inactive).

As to `COc1ccc(C(=O)C/C(=C\C(=O)c2ccc(C)cc2)c2ccccc2)cc1`, the AC50 is > 26 µM (inactive).

`COc1ccc2cc3[n+](cc2c1OC)CCc1cc2c(cc1-3)OCO2`: the AC50 is > 26 µM (inactive).

As for `O=C(NCC#CCSc1nnc(-c2cccc3ccccc23)o1)c1cccs1`, the AC50 was > 26 µM (inactive).

Regarding `CCS(=O)(=O)c1ncc(Cl)c(C(=O)Nc2ccccc2OC)n1`, the AC50 was > 26 µM (inactive).

As to `CC[C@@H](C(=O)[C@@H](C)[C@@H](O)[C@H](C)CCc1ccc(C)c(O)c1C(=O)O)[C@H]1O[C@](CC)([C@H]2CC[C@](O)(CC)[C@H](C)O2)C[C@@H]1C`, the AC50 was > 12 µM (inactive).

Turning to `OCCNc1nc(Nc2ccc(Cl)c(Cl)c2)nc2ccccc12`, the AC50 was > 26 µM (inactive).

For the compound `CC1CCN(Cc2c(C(=O)N/N=C/c3cc(Cl)ccc3O)nnn2-c2nonc2N)CC1`, the AC50 is > 26 µM (inactive).

As for `Cc1cc(N2CCC(C)CC2)nc(NCc2ccccc2)n1`, the AC50 is 19.6 µM.

Take `c1ccc(CCNc2ncnc3ccccc23)cc1`: the AC50 is > 26 µM (inactive).

As for `COc1ccc(O)c(/C=N/NC(=O)c2ccc(CSc3nc(C)cc(C)n3)cc2)c1`, the AC50 was > 26 µM (inactive).

On to `O=C(N/N=C/c1cccnc1)c1ccc(NC(=O)C(c2ccccc2)c2ccccc2)cc1`, for which the AC50 was > 26 µM (inactive).

Turning to `Cc1ccc(NC(=O)C2CCN(S(=O)(=O)c3ccc(N4CCCC4=O)cc3)CC2)cc1Cl`, the AC50 was > 26 µM (inactive).
